Values after ≈ are worked out from the molar mass of the structure shown. Like-named read-outs stand apart in the source and are kept apart here.
Experiments:
[1] = test system: PPARα target genes (Acadm, Cpt1a, Fabp3, Slc25a20) in 661W cells; test: RT-PCR of PPARα target genes in 661W cells; type: cell-based, mouse; settings: 24 h
Description: (§1) To further confirm that this 4-benzyloxy-benzylamino chemotype acts as a PPARα agonist, we evaluated compound 10 in various biochemical assays. […] Compound 10 was also evaluated in an in vitro wound healing assay utilizing human retinal capillary endothelial cells (HRCEC).

[2] = test system: liver phenotype of STZ diabetic rats; test: STZ-rat model, liver phenotype and toxicity; type: in vivo
Description: 7-8 week-old male Brown Norway rats were injected with streptozotocin (STZ, 55 mg/kg). Two weeks after STZ injections, daily treatment (i.p. injection) with ASD091 or FenoFA commenced and lasted for 26-28 days. ≠P<0.05 (vs. FenoFA), *P<0.05 (vs. STZ-DMSO).

[3] = test system: retinal vascular leakage in diabetic rats; test: STZ-rat model of diabetic retinopathy, retinal permeability; type: in vivo
Description: 7-8 week-old male Brown Norway rats were injected with streptozotocin (STZ, 55 mg/kg).

hPPARδ = molecular target: T1, hPPARδ (Homo sapiens, UniProt Q03181); test: PPARδ luciferase reporter cell-line assay (Indigo Biosciences); type: cell-based
T1 construct: expressed in transfected cells
T1 sequence (Q03181 1-441): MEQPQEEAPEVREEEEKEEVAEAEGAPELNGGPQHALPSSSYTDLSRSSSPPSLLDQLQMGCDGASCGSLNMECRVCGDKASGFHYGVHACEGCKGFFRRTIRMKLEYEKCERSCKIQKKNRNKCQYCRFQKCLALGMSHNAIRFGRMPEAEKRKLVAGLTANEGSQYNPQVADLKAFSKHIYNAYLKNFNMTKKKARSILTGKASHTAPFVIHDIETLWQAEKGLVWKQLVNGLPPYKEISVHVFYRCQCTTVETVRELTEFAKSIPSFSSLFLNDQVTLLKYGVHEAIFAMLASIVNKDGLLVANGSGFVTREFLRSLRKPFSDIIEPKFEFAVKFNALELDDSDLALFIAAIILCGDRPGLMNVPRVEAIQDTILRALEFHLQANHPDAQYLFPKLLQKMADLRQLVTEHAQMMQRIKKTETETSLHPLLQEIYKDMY
Description: (§2) Luciferase assays were conducted on isogenic cell-lines engineered to overexpress either PPARδ or PPARγ with expression of the requisite luciferase reporter gene dependent upon exogenous activation of each isoform.

hPPARγ = molecular target: T2, hPPARγ (Homo sapiens, UniProt P37231); test: PPARγ luciferase reporter cell-line assay (Indigo Biosciences); type: cell-based
T2 construct: expressed in transfected cells
T2 sequence (P37231 1-505): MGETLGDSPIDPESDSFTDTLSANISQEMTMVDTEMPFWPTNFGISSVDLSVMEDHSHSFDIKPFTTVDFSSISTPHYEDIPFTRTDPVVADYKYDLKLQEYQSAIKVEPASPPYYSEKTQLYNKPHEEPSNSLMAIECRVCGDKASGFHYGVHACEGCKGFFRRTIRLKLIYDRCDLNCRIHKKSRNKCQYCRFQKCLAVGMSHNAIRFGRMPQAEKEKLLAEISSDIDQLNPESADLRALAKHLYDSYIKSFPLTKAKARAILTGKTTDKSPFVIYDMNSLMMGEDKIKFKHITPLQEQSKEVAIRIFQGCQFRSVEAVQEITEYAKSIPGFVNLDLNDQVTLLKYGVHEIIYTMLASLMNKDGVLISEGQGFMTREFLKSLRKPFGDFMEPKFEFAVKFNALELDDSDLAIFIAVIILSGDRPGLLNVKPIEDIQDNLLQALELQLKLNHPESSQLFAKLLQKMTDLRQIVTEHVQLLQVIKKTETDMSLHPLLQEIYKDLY
Description: as §2

[4] = test system: PPARα expression in 661W cells; test: Western blot analysis of PPARα expression in 661W cells; type: cell-based, mouse; settings: 24 h, 10, 50 and 100 μM
Description: as §1

hPPARα = molecular target: T3, hPPARα (Homo sapiens, UniProt Q07869); test: PPARα luciferase cell reporter assay (Indigo Biosciences); type: cell-based; settings: for Fold (5 μM): fold increase in luciferase compared to DMSO negative control / Fold (50 μM): fold increase in luciferase compared to DMSO negative control: structure IIa compounds (Table 6); for ratio of agonism compared to GW590735 (value in parentheses): hPPARα luciferase reporter cell-line; for PPAR isoform selectivity profile: hPPARα vs hPPARδ and hPPARγ luciferase cell-lines; for dose-dependent PPARα agonism in cell-based luciferase reporter assay: FIGS. 4 and 7
T3 sequence (Q07869 1-468): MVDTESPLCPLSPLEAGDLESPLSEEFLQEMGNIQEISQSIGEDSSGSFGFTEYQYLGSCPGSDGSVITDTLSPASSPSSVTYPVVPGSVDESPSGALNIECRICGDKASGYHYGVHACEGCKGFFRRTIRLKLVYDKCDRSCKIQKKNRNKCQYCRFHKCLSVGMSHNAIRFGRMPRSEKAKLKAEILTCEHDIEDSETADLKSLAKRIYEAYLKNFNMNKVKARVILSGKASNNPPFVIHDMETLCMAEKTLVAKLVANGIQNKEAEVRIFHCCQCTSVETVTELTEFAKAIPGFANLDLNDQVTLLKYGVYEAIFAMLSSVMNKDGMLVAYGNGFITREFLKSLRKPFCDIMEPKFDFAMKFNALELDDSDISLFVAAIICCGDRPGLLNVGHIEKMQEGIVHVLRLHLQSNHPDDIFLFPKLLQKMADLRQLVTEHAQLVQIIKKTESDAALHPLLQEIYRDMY
Source text: With the focused subset of analogs in-hand, our efforts shifted to the evaluation of these derivatives for PPARα agonism. Preliminary evaluation utilized a commercially available PPARα luciferase cell reporter assay (Indigo Biosciences). The cell-line employed is engineered to constitutively express high-levels of hPPARα. Upon interaction with an agonist, hPPARα translocates to the nucleus, binds to the PPRE, and upregulates gene transcription, including the inserted luciferase gene. Luciferase activity is detected indirectly through quantification of oxyluciferin production.

[5] = Solubilities of various compounds; type: physicochemical
[6] = STZ diabetic Brown Norway rats, daily i.p. injection 26-28 days
[7] = inferred from efficacy after systemic administration
[8] = Table 6, cellular luciferase activity, read-out: δ EC50
[9] = luciferase reporter cell-line, triplicate, single experiment, read-out: hPPARδ EC50
[10] = Table 6, cellular luciferase activity, read-out: γ EC50
[11] = luciferase reporter cell-line, triplicate, single experiment, read-out: hPPARγ EC50
[12] = Table 6, cellular luciferase activity, read-out: α EC50
[13] = luciferase reporter cell-line, triplicate, single experiment, read-out: hPPARα EC50
[14] = PBS, pH 7.4, aqueous buffer, read-out: PBS Solubility pH 7.4
[15] = water, H2O, read-out: H2O Solubility

Compound	EC50 (hPPARδ; [8]) [µM]	EC50 (hPPARδ; [9]) [µM]	EC50 (hPPARγ; [10]) [µM]	EC50 (hPPARγ; [11]) [µM]	Fold (5 μM): fold increase in luciferase compared to DMSO negative control (hPPARα) [fold]	Fold (50 μM): fold increase in luciferase compared to DMSO negative control (hPPARα) [fold]	further results
COc1ccc(COc2ccc(CNc3cccc(C(=O)O)c3)cc2)cc1 [Compound 91]	> 100	> 100	> 100	> 100	–	–	expression of PPARα target genes (Acadm, Cpt1a, Fabp3, Slc25a20) [1]: induces the expression of various PPARα target genes; signs of hepatomegaly [2, 6]: seems to lack signs of hepatomegaly; observable toxicity ([2]; daily injection for one-month): no observable toxicity; retinal vascular leakage [3, 6]: reduces retinal vascular leakage in diabetic rats; bioavailability [3, 7]: is bioavailable; blood-ocular barrier crossing [3, 7]: crosses blood-ocular barrier and reaches the retina; expression of PPARα (Western blot, densitometry) [4]: induced the expression of PPARα in a dose-dependent manner
COc1ccc(COc2ccc(CNc3cccc(C(=O)O)c3)c(OCc3ccc(OC)cc3)c2)cc1 [Compound 92]	> 100	> 100	> 100	> 100	8	21	EC50 (hPPARα; [12]): 5.1 µM; ratio of agonism compared to GW590735 (value in parentheses) (hPPARα): 1.1; PPAR isoform selectivity profile (hPPARα): maintains the selectivity; EC50 (hPPARα; [13]): 5.1 µM
COc1ccc(COc2ccc(CNc3cccc(OC(C)(C)C(=O)O)c3)cc2)cc1 [Compound 114]	18.3	38.6	38.6	18.3	–	–	–
COc1ccc(COc2ccc(CNc3cccc(OC(C)(C)C(=O)O)c3)c(OCc3ccc(OC)cc3)c2)cc1 [Compound 115]	5.6	8.9	8.9	5.6	1	41	improvement in potency on adding third B-ring substituent (hPPARα; 28 compared with 22): 10 fold; EC50 (hPPARα; [12]): 2.1 µM; ratio of agonism compared to GW590735 (value in parentheses) (hPPARα): 1.4; PPAR isoform selectivity profile (hPPARα): pan-agonist profile was maintained; EC50 (hPPARα; [13]): 2.1 µM
Cc1cc(CNc2cccc(C(=O)O)c2)ccc1OCc1ccc(F)cc1 [Compound 190]	> 100	–	> 100	–	–	–	dose-dependent PPARα agonism in cell-based luciferase reporter assay (hPPARα): exhibits dose-dependent activity; dose-dependent PPARα agonism in cell-based luciferase reporter assay (hPPARα; listed as A190): dose-dependent agonism of PPARα; EC50 (hPPARα; [12]): 0.03 µM; EC50 (hPPARα; text b235, read-out: EC50 (PPARα)): 0.037 µM
O=C(O)c1cccc(NCc2ccc(OCc3ccccc3F)cc2)c1 [Compound 195]	–	–	–	–	34	45	–
Cc1cc(CNc2cccc(C(=O)O)c2)ccc1OCc1cc(F)cc(F)c1 [Compound 198]	–	–	–	–	88	84	–
Cc1cc(CN(C)c2cccc(C(=O)O)c2)ccc1OCc1ccc(F)cc1 [Compound 199]	–	–	–	–	102	131	–
CC(C)(Oc1ccc(C(=O)c2ccc(Cl)cc2)cc1)C(=O)O [Fenofibric acid, fenofibric acid, reference compound]	–	–	–	–	–	–	solubility [5, 14]: 278 µM (≈ 88.6 µg/mL); solubility [5, 15]: 93 µM (≈ 29.6 µg/mL)
Cc1cc(CNc2cccc(C(=O)OCOP(=O)([O-])O)c2)ccc1OCc1ccc(F)cc1.[Na+] [ZH-2021-162]	–	–	–	–	–	–	solubility [5, 14]: 292 µM; solubility [5, 15]: 318 µM
Cc1cc(CNc2cccc(C(=O)OCOP(=O)(O)O)c2)ccc1OCc1ccc(F)cc1 [ZH-2021-164]	–	–	–	–	–	–	solubility [5, 14]: 316 µM (≈ 150 µg/mL); solubility [5, 15]: 284 µM (≈ 135 µg/mL)

— patent publication US12319708B2, “Agonists of peroxisome proliferator-activated receptor alpha (PPARα) and methods of use” (The Board of Regents of the University of Oklahoma, priority 2018, dated 2025)
